Each structure is given as a SMILES string. pIC50: −log10 of the molar value.

The target of one data set is T1, Integrin alpha-4/beta-7 (Homo sapiens, UniProt P13612+P26010).
T1 sequence (P13612 whole entry): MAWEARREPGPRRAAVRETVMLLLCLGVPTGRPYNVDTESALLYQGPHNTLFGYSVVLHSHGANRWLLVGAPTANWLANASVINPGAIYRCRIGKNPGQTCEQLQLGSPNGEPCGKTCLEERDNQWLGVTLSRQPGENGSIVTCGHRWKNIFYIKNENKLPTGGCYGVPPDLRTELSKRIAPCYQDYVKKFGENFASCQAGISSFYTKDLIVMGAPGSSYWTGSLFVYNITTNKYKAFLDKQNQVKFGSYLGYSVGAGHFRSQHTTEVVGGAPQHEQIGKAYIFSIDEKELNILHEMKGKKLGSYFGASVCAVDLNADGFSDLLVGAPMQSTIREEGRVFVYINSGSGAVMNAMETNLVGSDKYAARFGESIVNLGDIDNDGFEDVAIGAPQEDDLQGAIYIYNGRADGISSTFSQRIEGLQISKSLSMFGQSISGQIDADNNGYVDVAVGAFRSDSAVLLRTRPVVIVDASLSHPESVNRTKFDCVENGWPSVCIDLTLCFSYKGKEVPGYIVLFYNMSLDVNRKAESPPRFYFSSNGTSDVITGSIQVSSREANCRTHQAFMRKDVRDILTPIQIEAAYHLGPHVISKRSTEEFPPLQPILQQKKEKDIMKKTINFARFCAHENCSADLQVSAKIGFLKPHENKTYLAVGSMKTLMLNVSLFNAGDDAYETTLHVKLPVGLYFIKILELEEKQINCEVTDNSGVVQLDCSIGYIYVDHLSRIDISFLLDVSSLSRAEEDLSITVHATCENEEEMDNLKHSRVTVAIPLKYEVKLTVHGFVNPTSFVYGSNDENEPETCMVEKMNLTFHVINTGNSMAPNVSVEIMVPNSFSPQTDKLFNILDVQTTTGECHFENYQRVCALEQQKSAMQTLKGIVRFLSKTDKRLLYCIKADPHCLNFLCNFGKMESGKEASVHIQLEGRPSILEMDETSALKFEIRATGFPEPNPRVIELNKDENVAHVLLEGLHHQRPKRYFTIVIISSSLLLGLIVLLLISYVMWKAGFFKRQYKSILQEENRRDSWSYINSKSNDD
T1 sequence (P26010 whole entry): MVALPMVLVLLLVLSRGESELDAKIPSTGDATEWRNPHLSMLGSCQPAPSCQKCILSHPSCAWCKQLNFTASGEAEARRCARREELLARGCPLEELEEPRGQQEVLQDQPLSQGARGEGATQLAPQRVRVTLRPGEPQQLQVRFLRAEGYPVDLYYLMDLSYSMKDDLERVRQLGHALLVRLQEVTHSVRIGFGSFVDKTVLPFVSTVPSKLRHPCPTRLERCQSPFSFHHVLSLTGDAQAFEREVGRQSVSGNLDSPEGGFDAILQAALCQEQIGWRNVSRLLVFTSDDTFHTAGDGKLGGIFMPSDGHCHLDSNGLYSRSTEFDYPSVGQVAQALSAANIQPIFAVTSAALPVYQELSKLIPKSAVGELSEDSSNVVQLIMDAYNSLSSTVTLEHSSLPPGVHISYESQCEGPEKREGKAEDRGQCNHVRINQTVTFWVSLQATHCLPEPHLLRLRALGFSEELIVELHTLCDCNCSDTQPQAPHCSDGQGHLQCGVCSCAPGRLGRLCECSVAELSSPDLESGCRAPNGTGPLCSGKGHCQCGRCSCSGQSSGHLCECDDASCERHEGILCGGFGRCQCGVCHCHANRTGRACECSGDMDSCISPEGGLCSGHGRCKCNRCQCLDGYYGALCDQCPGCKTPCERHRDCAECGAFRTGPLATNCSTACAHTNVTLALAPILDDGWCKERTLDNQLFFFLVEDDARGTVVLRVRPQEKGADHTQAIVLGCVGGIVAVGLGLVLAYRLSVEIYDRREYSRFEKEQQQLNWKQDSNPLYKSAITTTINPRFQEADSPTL
Description: Inhibition of human integrin alpha-4-beta-7-MAdCAM interaction in human RPMI 8866 cells by whole-cell adhesion assay. It is filed as cell-based.

Another data set concerns the target Integrin alpha-4/beta-1 (Homo sapiens, UniProt P05556+P13612). Description: Inhibition of integrin alpha-4-beta-1-VCAM interaction. It is filed as protein-complex assay.
A further data set addresses Integrin alpha-5/beta-1 (Homo sapiens, UniProt P05556+P08648). Description: Inhibition of integrin alpha-5-beta-1-fibronectin interaction. The class given is protein-complex assay.
Data set [1] can be described thus: Oral bioavailability in mouse. The class given is ADME, organism-based. The following applies: in vivo.
Data set [2] can be described thus: Half life in mouse. The conditions noted are these: in vivo. The class given is ADME, organism-based.
Data set [3] in a line: Clearance in mouse. The following applies: in vivo. It is filed as ADME, organism-based.
Data set [4] in a line: Volume of distribution in mouse. It is filed as ADME, organism-based. The conditions noted are these: in vivo.
The species named for a further data set is Mus musculus. Description: AUC in mouse. It is filed as ADME, organism-based, Plasma. The conditions noted are these: in vivo.

Sequence of Integrin alpha-5/beta-1 (P05556 21-798 limits assumed): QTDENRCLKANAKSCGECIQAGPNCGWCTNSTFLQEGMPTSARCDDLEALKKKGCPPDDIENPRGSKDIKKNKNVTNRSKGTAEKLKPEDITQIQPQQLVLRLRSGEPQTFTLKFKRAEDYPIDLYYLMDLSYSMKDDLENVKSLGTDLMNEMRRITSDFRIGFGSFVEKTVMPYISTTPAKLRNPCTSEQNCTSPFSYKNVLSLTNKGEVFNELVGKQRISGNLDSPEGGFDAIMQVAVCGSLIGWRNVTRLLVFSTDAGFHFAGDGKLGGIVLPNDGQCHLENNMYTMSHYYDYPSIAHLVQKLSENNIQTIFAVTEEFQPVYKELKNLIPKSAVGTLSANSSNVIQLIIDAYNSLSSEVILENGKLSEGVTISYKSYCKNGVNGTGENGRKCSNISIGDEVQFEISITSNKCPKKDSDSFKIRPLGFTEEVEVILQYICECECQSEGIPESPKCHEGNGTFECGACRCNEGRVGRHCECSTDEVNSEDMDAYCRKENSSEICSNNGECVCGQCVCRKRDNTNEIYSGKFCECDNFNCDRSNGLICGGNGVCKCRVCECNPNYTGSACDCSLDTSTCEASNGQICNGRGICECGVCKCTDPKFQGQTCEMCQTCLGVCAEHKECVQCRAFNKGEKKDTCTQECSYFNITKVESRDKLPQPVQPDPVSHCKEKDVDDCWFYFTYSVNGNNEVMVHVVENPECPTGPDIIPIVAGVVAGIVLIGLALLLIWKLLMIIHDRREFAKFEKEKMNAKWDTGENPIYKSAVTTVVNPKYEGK
Sequence of Integrin alpha-5/beta-1 (P08648 42-894 limits assumed): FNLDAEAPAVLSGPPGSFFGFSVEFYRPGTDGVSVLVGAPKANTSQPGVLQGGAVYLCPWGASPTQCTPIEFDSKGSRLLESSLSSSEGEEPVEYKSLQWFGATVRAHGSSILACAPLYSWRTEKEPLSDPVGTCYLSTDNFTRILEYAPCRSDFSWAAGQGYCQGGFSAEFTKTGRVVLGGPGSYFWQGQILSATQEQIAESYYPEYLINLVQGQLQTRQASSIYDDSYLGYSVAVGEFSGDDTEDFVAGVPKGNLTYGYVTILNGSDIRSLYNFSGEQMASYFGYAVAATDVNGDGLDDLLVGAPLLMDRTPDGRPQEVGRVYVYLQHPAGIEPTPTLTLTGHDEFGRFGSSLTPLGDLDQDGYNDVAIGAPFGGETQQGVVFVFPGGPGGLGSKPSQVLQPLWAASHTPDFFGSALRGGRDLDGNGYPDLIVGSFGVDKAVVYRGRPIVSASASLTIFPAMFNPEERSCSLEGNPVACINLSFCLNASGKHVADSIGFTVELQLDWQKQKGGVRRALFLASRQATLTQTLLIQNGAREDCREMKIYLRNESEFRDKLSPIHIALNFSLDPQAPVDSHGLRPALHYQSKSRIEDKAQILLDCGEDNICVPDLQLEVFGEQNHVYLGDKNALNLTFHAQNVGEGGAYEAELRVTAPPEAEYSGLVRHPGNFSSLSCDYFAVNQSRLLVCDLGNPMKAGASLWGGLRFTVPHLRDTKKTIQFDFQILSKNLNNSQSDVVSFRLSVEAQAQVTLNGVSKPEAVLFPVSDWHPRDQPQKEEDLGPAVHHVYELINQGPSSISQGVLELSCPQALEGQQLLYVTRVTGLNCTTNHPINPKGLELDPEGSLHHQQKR
Sequence of Integrin alpha-5/beta-1 (P08648 895-1049 limits assumed): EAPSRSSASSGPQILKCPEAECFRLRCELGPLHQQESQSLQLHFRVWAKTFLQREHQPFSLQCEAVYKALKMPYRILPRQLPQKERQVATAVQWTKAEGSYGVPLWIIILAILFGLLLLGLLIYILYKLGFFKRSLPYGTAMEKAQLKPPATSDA
Sequence of Integrin alpha-4/beta-1 (P05556 whole entry, one chain of several): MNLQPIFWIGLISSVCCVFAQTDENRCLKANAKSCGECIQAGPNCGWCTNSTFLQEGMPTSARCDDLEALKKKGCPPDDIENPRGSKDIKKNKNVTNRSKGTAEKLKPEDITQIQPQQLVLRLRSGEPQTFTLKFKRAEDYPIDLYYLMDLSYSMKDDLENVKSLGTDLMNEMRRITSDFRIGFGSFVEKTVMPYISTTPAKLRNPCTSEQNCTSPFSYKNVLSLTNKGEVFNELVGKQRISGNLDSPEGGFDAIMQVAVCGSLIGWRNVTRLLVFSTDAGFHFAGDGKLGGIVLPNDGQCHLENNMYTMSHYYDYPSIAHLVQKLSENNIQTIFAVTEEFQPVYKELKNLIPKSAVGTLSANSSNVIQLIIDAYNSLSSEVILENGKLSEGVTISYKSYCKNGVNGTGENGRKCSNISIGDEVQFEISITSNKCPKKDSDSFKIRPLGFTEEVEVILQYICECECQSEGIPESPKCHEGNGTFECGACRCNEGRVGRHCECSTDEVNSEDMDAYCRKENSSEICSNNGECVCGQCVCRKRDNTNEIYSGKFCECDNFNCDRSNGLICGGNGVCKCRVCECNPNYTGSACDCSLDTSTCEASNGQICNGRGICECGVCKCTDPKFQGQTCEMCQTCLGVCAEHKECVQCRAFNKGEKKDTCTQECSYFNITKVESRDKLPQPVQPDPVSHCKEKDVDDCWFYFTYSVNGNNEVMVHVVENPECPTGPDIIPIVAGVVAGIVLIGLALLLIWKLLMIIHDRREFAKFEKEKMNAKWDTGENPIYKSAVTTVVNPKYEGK

On to `O=C1NC(=O)N(c2cccc3ccccc23)C(=O)/C1=C\c1c[nH]c2ccccc12`, for which the pIC50 (as a rule, the IC50 on a negative log10 scale, so that one unit is a factor of ten) at Integrin alpha-4/beta-7 was 7.22; on Integrin alpha-4/beta-1, under 4.70; at Integrin alpha-5/beta-1, under 4.70. Besides, the bioavailability (in general, the share of a dose that reaches the circulation, judged against a reference dose that is usually intravenous) in data set [1] worked out at 62%. Further, the half-life – broadly, how long it takes for the measured level to halve – in data set [2] was 4.1 h. In addition, in data set [3], the clearance (in general, the volume of plasma or blood freed of the substance per unit of time) was 71 mL/min/kg. In addition, the Vd (in general, the apparent volume that relates the amount in the body to the concentration in plasma or blood) in data set [4] was 24.8 L/kg. The exposure (AUC) (commonly concentration integrated over time) in the data set filed under Mus musculus stood at 170 mg·min/mL.
In the case of `O=C1NC(=O)N(c2ccccc2-c2ccccc2)C(=O)/C1=C\c1c[nH]c2ccccc12`, the pIC50 is 6.59 at Integrin alpha-4/beta-7, under 4.70 on Integrin alpha-4/beta-1 and under 4.70 against Integrin alpha-5/beta-1.
Take `CC(C)(C)N1C(=O)NC(=O)/C(=C/c2c[nH]c3ccccc23)C1=O`: the pIC50 at Integrin alpha-4/beta-7 was under 4.70.
For `O=C1NC(=O)N(c2ccccc2)C(=O)/C1=C\c1ccc(C(F)(F)F)cc1`, the negative-log IC50 (pIC50) on Integrin alpha-4/beta-7 is 5.89.
`O=C1NC(=O)N(c2ccccc2)C(=O)/C1=C\c1ccccc1` gave a pIC50 on Integrin alpha-4/beta-7 of 5.66.
The same measure, in the same setting: the result for `O=C1NC(=O)N(c2ccc(Cl)cc2)C(=O)/C1=C\c1ccccc1` reads 6.00; that for `O=C1NC(=O)N(c2ccccc2)C(=O)/C1=C\c1cc2ccccc2[nH]1`, 5.00.
As for `O=C(/C=C1/C(=O)NC(=O)N(c2ccccc2)C1=O)/C=C/c1ccccc1`, at Integrin alpha-4/beta-7, the pIC50 is 5.07.
At Integrin alpha-4/beta-7, `Cn1cc(/C=C2/C(=O)NC(=O)N(c3cccc4ccccc34)C2=O)c2ccccc21` gave a pIC50 of 6.74. Against the preceding compound, the pIC50 is 1.67 log units higher.
Same read-out and setting: the result for `O=C1NC(=O)N(c2ccccc2)C(=O)/C1=C\c1c[nH]c2ccccc12` reads 6.05; that for `Cn1cc(/C=C2/C(=O)NC(=O)N(c3ccccc3)C2=O)c2ccccc21`, 5.39.
Compound `O=C1NC(=O)N(c2cc(Cl)cc(Cl)c2)C(=O)/C1=C\c1ccccc1` had a pIC50 at Integrin alpha-4/beta-7 of 5.80.
In turn, `CN1C(=O)/C(=C/c2c[nH]c3ccccc23)C(=O)N(c2cccc3ccccc23)C1=O` showed a pIC50 at Integrin alpha-4/beta-7 of 5.26.
In the case of `O=C1NC(=O)N(c2ccccc2)C(=O)/C1=C\c1ccco1`, the negative-log IC50 (pIC50) is 5.89 on Integrin alpha-4/beta-7, under 4.70 on Integrin alpha-4/beta-1 and under 4.70 against Integrin alpha-5/beta-1.

(Values after ChEMBL document CHEMBL1143882, “Selective cell adhesion inhibitors: Barbituric acid based alpha4beta7--MAdCAM inhibitors” (Bioorg Med Chem Lett, 2008).)
